Experimental data from ChEMBL document CHEMBL1201862, “PubChem BioAssay data set” (2004).
Active and inactive are the calls of the source.

What was measured:
[1] = target: Luciferin 4-monooxygenase (Photinus pyralis, UniProt P08659); experiment: firefly luciferase enzyme inhibitors, dose response, biochemical, luminescence (AID 1891)
[2] = Luminescence Cell-Based Dose Confirmation HTS to Identify Inhibitors of Platelet Dense Granule Release. [Related pubchem assays: 1663 (Primary HTS), 1678 (Summary of Project)]; format: functional
[3] = inhibitors of SFLLRN-triggered platelet P-selectin exposure, dose response, cell-based, fluorescence, flow cytometry, human platelets (AID 2511); format: functional
[4] = Luminescence Cell-Based Dose Response Follow up to Identify Inhibitors of Platelet Dense Granule Release. [Related pubchem assays (depositor defined):AID1663, AID1678, AID1889, AID2519]; format: functional
HEK293 = experiment: cells; format: functional, cell-based; conditions: Homo sapiens
[5] = target: Nuclear receptor subfamily 0 group B member 1 (Homo sapiens, UniProt P51843); experiment: Luminescence-based cell-based high throughput dose response assay for inhibitors of the orphan nuclear receptor subfamily 0, group B, member 1 (DAX1; NR0B1). [Related pubchem assays (depositor defined):AID504766, AID504790]; format: functional
Sequence of Nuclear receptor subfamily 0 group B member 1 (P51843 whole entry): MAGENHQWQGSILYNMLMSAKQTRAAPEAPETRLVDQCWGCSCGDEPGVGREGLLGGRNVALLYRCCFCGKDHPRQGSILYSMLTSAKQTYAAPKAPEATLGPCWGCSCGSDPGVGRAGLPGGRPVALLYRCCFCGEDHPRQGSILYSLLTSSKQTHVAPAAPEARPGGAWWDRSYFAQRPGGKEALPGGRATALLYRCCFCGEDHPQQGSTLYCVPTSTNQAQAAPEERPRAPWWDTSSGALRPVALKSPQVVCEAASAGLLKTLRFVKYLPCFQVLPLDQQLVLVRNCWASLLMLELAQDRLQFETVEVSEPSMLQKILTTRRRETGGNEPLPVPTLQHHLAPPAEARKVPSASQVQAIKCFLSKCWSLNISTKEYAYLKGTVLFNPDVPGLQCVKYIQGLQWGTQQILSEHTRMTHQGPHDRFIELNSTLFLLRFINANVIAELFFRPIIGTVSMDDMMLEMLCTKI

[6] = target: Voltage-gated inwardly rectifying potassium channel KCNH2 (Homo sapiens, UniProt Q12809); conditions: Potency;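 note: confirmatory quantitative high-throughput screen measuring inhibition of hERG channel activity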
Sequence of Voltage-gated inwardly rectifying potassium channel KCNH2 (Q12809 whole entry): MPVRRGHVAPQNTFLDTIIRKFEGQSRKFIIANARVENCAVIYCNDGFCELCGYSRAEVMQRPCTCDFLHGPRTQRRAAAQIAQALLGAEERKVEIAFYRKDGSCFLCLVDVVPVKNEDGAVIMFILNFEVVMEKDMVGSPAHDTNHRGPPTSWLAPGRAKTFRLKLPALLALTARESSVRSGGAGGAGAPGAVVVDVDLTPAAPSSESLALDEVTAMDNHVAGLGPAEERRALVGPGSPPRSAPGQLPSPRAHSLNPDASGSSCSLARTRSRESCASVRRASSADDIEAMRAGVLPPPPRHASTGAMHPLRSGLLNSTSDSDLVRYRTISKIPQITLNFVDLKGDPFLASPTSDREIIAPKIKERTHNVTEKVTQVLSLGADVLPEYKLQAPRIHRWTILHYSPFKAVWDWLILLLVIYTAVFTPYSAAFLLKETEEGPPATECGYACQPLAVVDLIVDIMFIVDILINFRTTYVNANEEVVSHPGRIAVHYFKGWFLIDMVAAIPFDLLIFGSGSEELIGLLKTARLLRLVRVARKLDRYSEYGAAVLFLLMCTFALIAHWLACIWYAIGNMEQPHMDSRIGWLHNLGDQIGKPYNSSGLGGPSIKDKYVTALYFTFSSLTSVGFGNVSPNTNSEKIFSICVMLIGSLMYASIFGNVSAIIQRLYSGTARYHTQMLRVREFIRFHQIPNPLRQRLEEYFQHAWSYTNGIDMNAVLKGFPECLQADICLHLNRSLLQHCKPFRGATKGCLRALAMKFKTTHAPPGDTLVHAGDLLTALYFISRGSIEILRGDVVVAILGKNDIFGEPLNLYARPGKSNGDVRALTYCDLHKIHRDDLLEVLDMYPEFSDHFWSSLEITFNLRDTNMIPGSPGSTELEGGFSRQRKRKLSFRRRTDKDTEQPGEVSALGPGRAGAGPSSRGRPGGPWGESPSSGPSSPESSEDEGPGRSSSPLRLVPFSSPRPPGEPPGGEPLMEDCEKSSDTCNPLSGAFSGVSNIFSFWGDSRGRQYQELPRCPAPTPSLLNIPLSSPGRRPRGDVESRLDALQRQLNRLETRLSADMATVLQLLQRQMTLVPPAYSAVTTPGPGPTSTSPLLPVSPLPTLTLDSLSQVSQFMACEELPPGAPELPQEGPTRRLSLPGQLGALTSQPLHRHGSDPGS

[7] = target: T1, Tyrosine-protein phosphatase non-receptor type 7 (Homo sapiens, UniProt P35236); format: functional
T1 sequence (P35236 whole entry): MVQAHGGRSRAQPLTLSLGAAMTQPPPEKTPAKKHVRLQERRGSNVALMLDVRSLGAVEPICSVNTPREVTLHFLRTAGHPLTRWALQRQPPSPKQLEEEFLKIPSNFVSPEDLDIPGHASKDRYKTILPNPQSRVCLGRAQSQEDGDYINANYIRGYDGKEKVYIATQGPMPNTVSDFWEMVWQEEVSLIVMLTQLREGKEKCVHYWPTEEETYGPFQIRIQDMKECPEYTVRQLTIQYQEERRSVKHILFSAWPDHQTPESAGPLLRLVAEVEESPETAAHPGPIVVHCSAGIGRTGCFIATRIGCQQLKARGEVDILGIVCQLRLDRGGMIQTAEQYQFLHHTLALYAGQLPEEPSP

[8] = target: Glyceraldehyde-3-phosphate dehydrogenase (Homo sapiens, UniProt P04406)
Sequence of Glyceraldehyde-3-phosphate dehydrogenase (P04406 whole entry): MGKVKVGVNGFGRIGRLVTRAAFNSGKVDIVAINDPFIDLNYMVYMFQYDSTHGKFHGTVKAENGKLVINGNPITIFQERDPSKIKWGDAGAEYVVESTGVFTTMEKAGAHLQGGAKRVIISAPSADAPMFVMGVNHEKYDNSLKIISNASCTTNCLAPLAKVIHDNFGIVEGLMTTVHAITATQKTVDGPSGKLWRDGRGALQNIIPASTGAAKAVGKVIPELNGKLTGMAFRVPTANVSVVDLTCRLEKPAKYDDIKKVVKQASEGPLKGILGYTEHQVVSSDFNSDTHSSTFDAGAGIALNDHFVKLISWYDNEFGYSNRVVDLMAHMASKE

[9] = target: T2, Dual specificity protein phosphatase 6 (Rattus norvegicus, UniProt Q64346)
T2 sequence (Q64346 whole entry): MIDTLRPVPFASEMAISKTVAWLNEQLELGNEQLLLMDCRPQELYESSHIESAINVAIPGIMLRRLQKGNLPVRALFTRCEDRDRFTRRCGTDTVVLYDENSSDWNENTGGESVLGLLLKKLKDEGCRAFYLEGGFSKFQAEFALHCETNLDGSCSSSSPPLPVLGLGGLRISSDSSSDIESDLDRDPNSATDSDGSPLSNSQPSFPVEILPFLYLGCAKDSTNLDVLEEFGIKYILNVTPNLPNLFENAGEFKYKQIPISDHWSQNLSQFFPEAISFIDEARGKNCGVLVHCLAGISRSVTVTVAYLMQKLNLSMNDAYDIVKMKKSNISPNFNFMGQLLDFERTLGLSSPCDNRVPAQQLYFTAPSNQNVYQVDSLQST

[10] = target: T2, Dual specificity protein phosphatase 6; format: functional
[11] = target: Sphingosine 1-phosphate receptor 2 (Homo sapiens, UniProt O95136); experiment: Dose Response Cell Based Assay for Antagonists of the S1P2 Receptor. [Related pubchem assays: 856, 736 ]; format: functional
Sequence of Sphingosine 1-phosphate receptor 2 (O95136 whole entry): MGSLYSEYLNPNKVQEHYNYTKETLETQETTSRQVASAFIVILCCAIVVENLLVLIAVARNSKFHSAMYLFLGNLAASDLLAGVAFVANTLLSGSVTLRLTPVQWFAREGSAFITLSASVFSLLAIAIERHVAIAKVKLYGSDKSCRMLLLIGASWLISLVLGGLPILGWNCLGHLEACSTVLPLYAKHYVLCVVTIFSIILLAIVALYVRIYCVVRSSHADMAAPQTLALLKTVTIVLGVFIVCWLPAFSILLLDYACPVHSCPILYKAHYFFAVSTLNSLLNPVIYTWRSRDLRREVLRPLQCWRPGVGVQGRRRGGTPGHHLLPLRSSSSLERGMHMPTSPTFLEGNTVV

[12] = growth suppression of PTEN-null colon cells, dose response, cell-based, HCT116 PTEN knockout (AID 1047); format: functional;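 note: HCT116 colon tumor cells with PTEN knocked out; cells exposed to compound for 60 hours before readout; potency for loss of cell viability measured by luminescence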
[13] = growth suppression of beta-catenin-knockout colon cells, dose response, cell-based, HCT116, human colon tumor (AID 1045); format: functional;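 note: HCT116 colon tumor cells with beta catenin knocked out; cells exposed to compound for 60 hours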
[14] = target: T3, Mannose-6-phosphate isomerase (Homo sapiens, UniProt P34949); experiment: human PMI inhibitors, high substrate, primary screen, biochemical, fluorescence intensity, high mannose 6-phosphate (AID 1220)
T3 sequence (P34949 whole entry): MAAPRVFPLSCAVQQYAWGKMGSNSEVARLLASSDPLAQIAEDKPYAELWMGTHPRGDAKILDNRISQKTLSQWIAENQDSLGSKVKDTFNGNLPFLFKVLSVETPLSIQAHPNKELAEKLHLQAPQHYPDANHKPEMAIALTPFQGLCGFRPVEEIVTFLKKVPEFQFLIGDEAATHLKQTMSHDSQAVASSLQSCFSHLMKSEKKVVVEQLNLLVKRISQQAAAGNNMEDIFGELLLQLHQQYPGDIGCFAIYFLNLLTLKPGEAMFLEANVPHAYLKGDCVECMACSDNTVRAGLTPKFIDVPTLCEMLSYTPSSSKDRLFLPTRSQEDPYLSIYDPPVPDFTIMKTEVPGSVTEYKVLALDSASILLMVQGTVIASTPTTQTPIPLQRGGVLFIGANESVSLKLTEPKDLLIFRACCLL

[15] = THP-1 cell cytotoxicity, dose response, cytotoxicity control for non-replicating M. tuberculosis project (AID 489025); format: functional
[16] = Vero E6 cell cytotoxicity, dose response, cytotoxicity control for non-replicating M. tuberculosis project, secondary assay (AID 492998); format: functional, VeroE6; conditions: Vero C1008
cells = format: functional
[17] = target: Heat shock protein HSP 90-alpha (Homo sapiens, UniProt P07900); format: functional, organism-based
[18] = target: T4, High affinity choline transporter 1 (Homo sapiens, UniProt Q9GZV3); experiment: CHT inhibitors, dose response, cell-based, 5-point CRC, membrane potential dye (AID 504840); format: functional
T4 sequence (Q9GZV3 whole entry): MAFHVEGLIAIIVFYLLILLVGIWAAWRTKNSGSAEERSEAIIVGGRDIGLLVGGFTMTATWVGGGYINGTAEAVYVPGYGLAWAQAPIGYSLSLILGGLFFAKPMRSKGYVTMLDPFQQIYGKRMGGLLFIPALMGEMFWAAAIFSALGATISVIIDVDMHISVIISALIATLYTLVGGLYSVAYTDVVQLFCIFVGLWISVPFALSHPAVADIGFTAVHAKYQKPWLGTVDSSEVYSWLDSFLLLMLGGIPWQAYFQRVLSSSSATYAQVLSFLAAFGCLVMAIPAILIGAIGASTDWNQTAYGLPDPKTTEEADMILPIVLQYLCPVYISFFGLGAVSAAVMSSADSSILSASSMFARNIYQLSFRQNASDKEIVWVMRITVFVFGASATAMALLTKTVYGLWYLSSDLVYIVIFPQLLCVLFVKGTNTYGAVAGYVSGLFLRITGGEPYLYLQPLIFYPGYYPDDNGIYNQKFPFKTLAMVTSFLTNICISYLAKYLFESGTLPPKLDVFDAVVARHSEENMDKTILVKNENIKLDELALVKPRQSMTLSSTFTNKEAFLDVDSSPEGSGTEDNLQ

[19] = target: Delta-type opioid receptor (Homo sapiens, UniProt P41143); experiment: Counterscreen for agonists of heterodimerization of the mu 1 (OPRM1) and delta 1 (OPRD1) opioid receptors: Luminescence-based cell-based high throughput dose response assay to identify agonists of OPRD1 homodimerization. [Related pubchem assays (depositor defined):AID504326, AID504355, AID504692, AID504904, AID504905]; format: functional
Sequence of Delta-type opioid receptor (P41143 whole entry): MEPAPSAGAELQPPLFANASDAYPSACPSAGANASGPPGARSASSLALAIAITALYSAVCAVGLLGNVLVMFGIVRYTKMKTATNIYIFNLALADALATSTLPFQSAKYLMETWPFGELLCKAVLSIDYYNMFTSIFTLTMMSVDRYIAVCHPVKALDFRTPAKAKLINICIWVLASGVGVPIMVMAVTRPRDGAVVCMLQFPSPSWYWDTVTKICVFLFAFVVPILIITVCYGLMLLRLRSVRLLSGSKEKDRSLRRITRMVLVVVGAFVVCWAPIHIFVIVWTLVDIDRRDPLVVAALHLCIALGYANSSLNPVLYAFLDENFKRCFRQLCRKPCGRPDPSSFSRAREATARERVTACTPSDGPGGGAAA

Mu-type opioid receptor = Mu-type opioid receptor (Homo sapiens, UniProt P35372); experiment: Counterscreen for agonists of heterodimerization of the mu 1 (OPRM1) and delta 1 (OPRD1) opioid receptors: Luminescence-based cell-based high throughput dose response assay to identify agonists of OPRM1 homodimerization.; format: functional;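 note: U2OS cells expressing OPRM1 and beta-arrestin as split beta-galactosidase partners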
Sequence of Mu-type opioid receptor (P35372 whole entry): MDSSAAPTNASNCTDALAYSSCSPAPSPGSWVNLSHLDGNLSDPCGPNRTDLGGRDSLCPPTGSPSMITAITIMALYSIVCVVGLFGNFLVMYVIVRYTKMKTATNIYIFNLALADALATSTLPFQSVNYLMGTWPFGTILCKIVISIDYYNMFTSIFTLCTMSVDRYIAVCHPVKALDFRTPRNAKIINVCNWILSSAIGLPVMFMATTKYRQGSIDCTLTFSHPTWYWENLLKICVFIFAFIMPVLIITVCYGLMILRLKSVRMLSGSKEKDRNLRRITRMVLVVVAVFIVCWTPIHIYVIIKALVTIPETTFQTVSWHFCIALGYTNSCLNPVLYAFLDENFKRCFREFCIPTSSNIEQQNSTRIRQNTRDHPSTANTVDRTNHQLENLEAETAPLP

[20] = target: 5-hydroxytryptamine receptor 5A (Homo sapiens, UniProt P47898); experiment: Counterscreen for agonists of OPRM1-OPRD1 heterodimerization: luminescence-based cell-based high throughput dose response assay to identify agonists of 5-hydroxytryptamine (serotonin) 5A receptor (HTR5A). [Related pubchem assays (depositor defined):AID504326, AID504355, AID504692, AID504904, AID504905]; format: functional
Sequence of 5-hydroxytryptamine receptor 5A (P47898 whole entry): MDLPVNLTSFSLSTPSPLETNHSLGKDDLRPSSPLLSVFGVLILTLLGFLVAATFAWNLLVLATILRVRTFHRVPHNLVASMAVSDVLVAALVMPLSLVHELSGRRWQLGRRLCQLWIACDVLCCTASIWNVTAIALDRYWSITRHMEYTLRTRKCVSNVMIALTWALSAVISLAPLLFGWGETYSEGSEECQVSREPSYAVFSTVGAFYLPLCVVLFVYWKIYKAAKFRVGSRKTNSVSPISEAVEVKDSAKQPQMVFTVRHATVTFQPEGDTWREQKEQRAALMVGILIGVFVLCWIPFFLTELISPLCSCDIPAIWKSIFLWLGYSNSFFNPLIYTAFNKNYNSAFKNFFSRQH

INS1 = experiment: beta cell apoptosis inhibitors, cytokine rescue, dose response, luminescence, retest (AID 449756); format: functional, cell-based; conditions: Rattus norvegicus;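 note: cell death triggered by IL-1 beta plus TNF-alpha plus IFN-gamma mixture; protective hits raise ATP signal compared with cytokine alone wells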
[21] = target: Induced myeloid leukemia cell differentiation protein Mcl-1 (Homo sapiens, UniProt Q07820); format: functional
Sequence of Induced myeloid leukemia cell differentiation protein Mcl-1 (Q07820 whole entry): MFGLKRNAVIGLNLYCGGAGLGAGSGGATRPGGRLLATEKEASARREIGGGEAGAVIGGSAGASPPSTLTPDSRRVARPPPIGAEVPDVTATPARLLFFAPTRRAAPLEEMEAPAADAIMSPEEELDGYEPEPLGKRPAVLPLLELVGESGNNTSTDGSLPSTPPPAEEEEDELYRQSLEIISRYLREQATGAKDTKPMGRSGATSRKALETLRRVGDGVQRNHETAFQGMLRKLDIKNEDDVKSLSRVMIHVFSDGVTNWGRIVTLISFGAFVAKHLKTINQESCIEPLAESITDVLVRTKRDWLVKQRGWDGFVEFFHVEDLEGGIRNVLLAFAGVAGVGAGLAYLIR

[22] = target: Glucose-6-phosphate 1-dehydrogenase (Homo sapiens, UniProt P11413); experiment: human G6PD enzyme inhibitors, dose response, selectivity assay for P. falciparum G6PD inhibitor project, biochemical, fluorescence (AID 504792); format: functional
Sequence of Glucose-6-phosphate 1-dehydrogenase (P11413 whole entry): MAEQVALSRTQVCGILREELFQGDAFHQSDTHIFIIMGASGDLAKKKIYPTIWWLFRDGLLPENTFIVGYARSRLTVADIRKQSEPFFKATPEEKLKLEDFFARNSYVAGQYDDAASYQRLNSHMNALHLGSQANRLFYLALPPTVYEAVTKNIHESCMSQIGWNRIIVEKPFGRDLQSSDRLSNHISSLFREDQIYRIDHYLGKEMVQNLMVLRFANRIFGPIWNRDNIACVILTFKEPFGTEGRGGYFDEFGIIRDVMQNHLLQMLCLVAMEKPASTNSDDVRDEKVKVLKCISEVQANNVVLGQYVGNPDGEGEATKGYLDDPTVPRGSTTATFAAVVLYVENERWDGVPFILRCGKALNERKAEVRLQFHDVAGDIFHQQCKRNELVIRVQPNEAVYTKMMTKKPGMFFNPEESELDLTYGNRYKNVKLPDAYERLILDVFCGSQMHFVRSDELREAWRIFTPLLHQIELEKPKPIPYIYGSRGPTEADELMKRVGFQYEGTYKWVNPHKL

[23] = target: Eukaryotic translation initiation factor 4E (Mus musculus, UniProt P63073); experiment: eIF4E–eIF4G protein interaction inhibitors, dose response, biochemical, TR-FRET (AID 855); format: functional;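 note: potency for disrupting eIF4E binding to eIF4GI seen as loss of FRET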
Sequence of Eukaryotic translation initiation factor 4E (P63073 whole entry): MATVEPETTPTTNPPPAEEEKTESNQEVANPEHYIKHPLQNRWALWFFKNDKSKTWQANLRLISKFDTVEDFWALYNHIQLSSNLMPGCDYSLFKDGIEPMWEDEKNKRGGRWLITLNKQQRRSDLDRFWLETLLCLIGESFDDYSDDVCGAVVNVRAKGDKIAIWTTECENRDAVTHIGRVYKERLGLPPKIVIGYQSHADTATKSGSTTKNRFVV

[24] = target: UDP-galactopyranose mutase (Mycobacterium tuberculosis, UniProt P9WIQ1); experiment: Inhibitors of Mycobacterium tuberculosis UDP-galactopyranose mutase (UGM) enzyme Measured in Biochemical System Using Plate Reader - 2105-02_Inhibitor_Dose_CherryPick_Activity. [Related pubchem assays (depositor defined):AID504439]
Sequence of UDP-galactopyranose mutase (P9WIQ1 whole entry): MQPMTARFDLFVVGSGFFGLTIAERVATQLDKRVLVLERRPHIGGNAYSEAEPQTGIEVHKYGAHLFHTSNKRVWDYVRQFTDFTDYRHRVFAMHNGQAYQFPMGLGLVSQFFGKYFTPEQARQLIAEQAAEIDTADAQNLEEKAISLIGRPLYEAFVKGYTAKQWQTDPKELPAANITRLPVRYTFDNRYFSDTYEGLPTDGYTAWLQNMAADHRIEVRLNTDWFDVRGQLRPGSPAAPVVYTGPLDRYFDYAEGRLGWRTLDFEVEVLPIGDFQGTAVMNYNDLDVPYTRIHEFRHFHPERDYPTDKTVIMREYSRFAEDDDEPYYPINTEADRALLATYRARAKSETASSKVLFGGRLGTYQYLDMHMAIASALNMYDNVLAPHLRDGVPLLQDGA

[25] = target: T5, Long-chain-fatty-acid--AMP ligase FadD28 (Mycobacterium tuberculosis, UniProt P9WQ59); experiment: Fluorescence polarization aasay to screen for inhibitors that compete for the binding of FadD28 to a bisubstrate Measured in Biochemical System Using Plate Reader - 2147-01_Inhibitor_Dose_CherryPick_Activity.; format: functional, Mycobacterium tuberculosis H37Rv
T5 sequence (P9WQ59 whole entry): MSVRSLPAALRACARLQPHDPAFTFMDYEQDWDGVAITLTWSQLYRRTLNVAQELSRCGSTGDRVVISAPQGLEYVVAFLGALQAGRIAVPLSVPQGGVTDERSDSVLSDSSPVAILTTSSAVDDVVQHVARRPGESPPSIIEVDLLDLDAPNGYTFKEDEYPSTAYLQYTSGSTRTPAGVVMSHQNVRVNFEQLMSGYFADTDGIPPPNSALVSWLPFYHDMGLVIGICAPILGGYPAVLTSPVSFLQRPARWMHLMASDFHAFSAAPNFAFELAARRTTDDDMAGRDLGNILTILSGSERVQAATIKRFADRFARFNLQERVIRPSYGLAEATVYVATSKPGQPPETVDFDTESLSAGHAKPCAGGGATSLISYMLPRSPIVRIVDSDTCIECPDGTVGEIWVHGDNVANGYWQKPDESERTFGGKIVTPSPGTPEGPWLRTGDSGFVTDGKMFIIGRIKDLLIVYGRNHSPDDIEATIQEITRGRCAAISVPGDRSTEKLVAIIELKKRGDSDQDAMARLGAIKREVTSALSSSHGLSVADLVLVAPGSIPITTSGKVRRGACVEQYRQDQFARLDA

[26] = THP-1 cell cytotoxicity, dose response, cytotoxicity control for Vif-APOBEC3G degradation inhibitor project, THP-1 cells (AID 1117359); format: functional; conditions: Human immunodeficiency virus 1, THP-1

CCCCC(=O)Nc1cccc(NC(=O)c2ccccc2Br)c1
EC50 [1]: > 112 µM (not active) | EC50 [2]: 6.9 µM (active) | EC50 [3]: < 3 µM (active) | EC50 [4]: 500 µM (inactive)

COc1ccc(-c2csc(Nc3cccc(C)n3)n2)cc1
IC50 (HEK293): > 67.5 µM (inactive) | IC50 [5]: > 67.5 µM (inactive)

CCN(CC)C(=O)N[C@@H]1C[C@@H]2c3cccc4[nH]cc(c34)C[C@H]2N(C)C1
AC50 [6]: 25.1 µM (inconclusive)

Cc1ccccc1Cn1c(=O)n(-c2ccccc2)c(=O)n([C@H](C(=O)O)C(C)C)c1=O
IC50 [7]: > 100 µM (not active) | IC50 [8]: > 100 µM (not active) | IC50 [9]: > 100 µM (inactive) | IC50 [10]: > 100 µM (inactive)

CC1=C/C(=N\OS(=O)(=O)c2ccccc2)C(C)=CC1=O
IC50 [11]: 3.71 µM (active) | EC50 [12]: 14.5 µM (active) | EC50 [13]: 16.4 µM (active) | IC50 [14]: 3.73 µM (active) | CC50 [15]: 12 µM (active) | CC50 [16]: 15.6 µM (active) | IC50 (cells): 3.09 µM (active) | AC50 [17]: 0.554 µM (active) | IC50 [18]: 12.3 µM (active) | EC50 [19]: > 92.5 µM (inactive) | EC50 (Mu-type opioid receptor): > 92.5 µM (inactive) | EC50 [20]: > 92.5 µM (inactive) | AC50 (INS1): 1.17 µM (active)

COc1cc(/C=C2\CC/C(=C\c3cc(OC)c(O)c(OC)c3)C2=O)cc(OC)c1O
IC50 [21]: 5.75 µM (active) | IC50 [14]: 24.7 µM (active) | IC50 [22]: > 80 µM (inactive) | IC50 [23]: > 64 µM (inactive) | AC50 [24]: 8.22 µM (active) | AC50 (INS1): 4.41 µM (active) | AC50 [25]: 86.6 µM (active) | CC50 [26]: 3.3 µM (active)
